ChEMBL document CHEMBL6109153, “Development of Membrane-Targeting Osthole Derivatives Containing Pyridinium Quaternary Ammonium Moieties with Potent Anti-Methicillin-Resistant Staphylococcus aureus Properties” (J Med Chem, 2025)
In brackets after ≈: the same amount, converted by molar mass.

Assays:
Staphylococcus aureus [1] = assay: Antibacterial activity against methicillin-resistant Staphylococcus aureus M14 incubated for 16 to 20 hrs by broth microdilution method; format: functional; settings: time 16-20 hrs
Staphylococcus aureus [2] = assay: Antibacterial activity against methicillin-resistant Staphylococcus aureus M21 incubated for 16 to 20 hrs by broth microdilution method; format: functional; settings: time 16-20 hrs
Staphylococcus aureus [3] = assay: Antibacterial activity against methicillin-resistant Staphylococcus aureus M22 incubated for 16 to 20 hrs by broth microdilution method; format: functional; settings: time 16-20 hrs
Escherichia coli = assay: Antibacterial activity against Escherichia coli ATCC 25922 incubated for 16 to 20 hrs by broth microdilution method; format: functional; settings: time 16-20 hrs
Staphylococcus aureus [4] = assay: Antibacterial activity against methicillin-resistant Staphylococcus aureus M11 incubated for 16 to 20 hrs by broth microdilution method; format: functional; settings: time 16-20 hrs
[5] = Hemolytic activity against sheep erythrocytes; format: toxicity, cell-based, Ovis aries, Erythrocyte
Staphylococcus aureus [6] = assay: Antibacterial activity against methicillin-resistant Staphylococcus aureus M23 incubated for 16 to 20 hrs by broth microdilution method; format: functional; settings: time 16-20 hrs
Staphylococcus aureus [7] = assay: Antibacterial activity against methicillin-resistant Staphylococcus aureus M12 incubated for 16 to 20 hrs by broth microdilution method; format: functional; settings: time 16-20 hrs
Staphylococcus aureus [8] = assay: Antibacterial activity against methicillin-resistant Staphylococcus aureus M13 incubated for 16 to 20 hrs by broth microdilution method; format: functional; settings: time 16-20 hrs
Staphylococcus aureus [9] = assay: Antibacterial activity against methicillin-resistant Staphylococcus aureus M20 incubated for 16 to 20 hrs by broth microdilution method; format: functional; settings: time 16-20 hrs
Staphylococcus aureus [10] = assay: Antibacterial activity against methicillin-resistant Staphylococcus aureus M16 incubated for 16 to 20 hrs by broth microdilution method; format: functional; settings: time 16-20 hrs
Staphylococcus aureus [11] = assay: Antibacterial activity against Staphylococcus aureus ATCC 29213 incubated for 16 to 20 hrs by broth microdilution method; format: functional; settings: time 16-20 hrs
Staphylococcus aureus [12] = assay: Antibacterial activity against methicillin-resistant Staphylococcus aureus M17 incubated for 16 to 20 hrs by broth microdilution method; format: functional; settings: time 16-20 hrs

Row | Compound | MIC (Staphylococcus aureus [1]) [µg/mL] | MIC (Staphylococcus aureus [2]) [µg/mL] | MIC (Staphylococcus aureus [3]) [µg/mL] | MIC (Escherichia coli) [µg/mL] | MIC (Staphylococcus aureus [4]) [µg/mL] | HC50 [5] [µg/mL] | MIC (Staphylococcus aureus [6]) [µg/mL] | MIC (Staphylococcus aureus [7]) [µg/mL] | MIC (Staphylococcus aureus [8]) [µg/mL] | MIC (Staphylococcus aureus [9]) [µg/mL] | MIC (Staphylococcus aureus [10]) [µg/mL] | MIC (Staphylococcus aureus [11]) [µg/mL] | MIC (Staphylococcus aureus [12]) [µg/mL]
1 | CC(C)=CCc1c(OCCCSc2cc[n+](CC(=O)N(C)c3ccccc3)cc2)ccc2ccc(=O)oc12.[Br-] | 4 | 8 | 8 | > 128 | 4 | > 160 | 8 | 16 | 16 | 4 | 8 | 8 | 8
2 | CCCNC(=O)C[n+]1ccc(SCCCCOc2ccc3ccc(=O)oc3c2CC=C(C)C)cc1.[Br-] | 8 | 2 | 2 | > 128 | 4 | > 160 | 8 | 16 | 16 | 8 | 8 | 16 | 8
3 | CC(C)=CCc1c(OCCCCSc2cc[n+](CC(=O)N(C)c3ccccc3)cc2)ccc2ccc(=O)oc12.[Br-] | 4 | 8 | 8 | > 128 | 2 | > 160 | 16 | 8 | 8 | 2 | 4 | 4 | 16
4 | CCCCN(CCCC)C(=O)C[n+]1ccc(SCCCCOc2ccc3ccc(=O)oc3c2CC=C(C)C)cc1.[Br-] | 1 | 0.5 | 0.5 | > 128 | 1 | > 160 | 0.5 | 2 | 2 | 0.5 | 1 | 1 | 1
5 | CCCCN(CCCC)C(=O)C[n+]1ccc(SCCCOc2ccc3ccc(=O)oc3c2CC=C(C)C)cc1.[Br-] | 1 | 2 | 2 | > 128 | 1 | > 160 | 2 | 4 | 4 | 1 | 2 | 1 | 1
6 | CC(C)=CCc1c(OCCCCCSc2cc[n+](CC(=O)N(CC(C)C)CC(C)C)cc2)ccc2ccc(=O)oc12.[Br-] | 8 | 2 | 2 | > 128 | 8 | > 160 | 8 | 8 | 8 | 8 | 16 | 1 | 2
7 | CC(C)=CCc1c(OCCCCCSc2cc[n+](CC(=O)N3CCOCC3)cc2)ccc2ccc(=O)oc12.[Br-] | 16 | 32 | 32 | > 128 | 16 | > 160 | 32 | 32 | 64 | 16 | 16 | 32 | 32
8 | CC(C)=CCc1c(OCCCSc2cc[n+](CC(=O)N(C(C)C)C(C)C)cc2)ccc2ccc(=O)oc12.[Br-] | 2 | 4 | 4 | > 128 | 2 | > 160 | 4 | 8 | 8 | 2 | 4 | 4 | 4
9 | CCCCCNC(=O)C[n+]1ccc(SCCCCOc2ccc3ccc(=O)oc3c2CC=C(C)C)cc1.[Br-] | 1 | 4 | 4 | > 128 | 2 | > 160 | 1 | 4 | 4 | 1 | 2 | 4 | 2
10 | CCCCNC(=O)C[n+]1ccc(SCCCOc2ccc3ccc(=O)oc3c2CC=C(C)C)cc1.[Br-] | 4 | 4 | 4 | > 128 | 4 | > 160 | 8 | 8 | 8 | 4 | 4 | 2 | 8
11 | CCCN(CCC)C(=O)C[n+]1ccc(SCCCOc2ccc3ccc(=O)oc3c2CC=C(C)C)cc1.[Br-] | 8 | 8 | 8 | 128 | 4 | > 160 | 8 | 16 | 16 | 4 | 8 | 4 | 8
12 | CC(C)=CCc1c(OCCCSc2cc[n+](CC(=O)N(CC(C)C)CC(C)C)cc2)ccc2ccc(=O)oc12.[Br-] | 2 | 2 | 2 | > 128 | 1 | > 160 | 2 | 4 | 4 | 2 | 2 | 2 | 4
13 | CCCCNC(=O)C[n+]1ccc(SCCCCCOc2ccc3ccc(=O)oc3c2CC=C(C)C)cc1.[Br-] | 1 | 1 | 1 | > 128 | 1 | > 160 | 2 | 2 | 2 | 1 | 2 | 2 | 2
14 | CCCN(CCC)C(=O)C[n+]1ccc(SCCCCCOc2ccc3ccc(=O)oc3c2CC=C(C)C)cc1.[Br-] | 1 | 1 | 1 | > 128 | 1 | > 160 | 2 | 2 | 4 | 1 | 1 | 1 | 2
15 | CCCCCCNC(=O)C[n+]1ccc(SCCCCOc2ccc3ccc(=O)oc3c2CC=C(C)C)cc1.[Br-] | 1 | 2 | 2 | 32 | 1 | > 160 | 2 | 2 | 2 | 1 | 2 | 1 | 1
16 | CC(C)=CCc1c(OCCCCSc2cc[n+](CC(=O)N3CCOCC3)cc2)ccc2ccc(=O)oc12.[Br-] | 32 | 32 | 32 | > 128 | 32 | > 160 | 32 | 64 | 64 | 32 | 32 | 32 | 32
17 | CCCCN(CCCC)C(=O)C[n+]1ccc(SCCCCCOc2ccc3ccc(=O)oc3c2CC=C(C)C)cc1.[Br-] | 0.5 | 1 | 1 | > 128 | 0.5 | > 160 | 1 | 1 | 1 | 0.5 | 1 | 1 | 2
18 | CCCCCCNC(=O)C[n+]1ccc(SCCCOc2ccc3ccc(=O)oc3c2CC=C(C)C)cc1.[Br-] | 2 | 4 | 4 | 64 | 2 | > 160 | 2 | 4 | 4 | 2 | 4 | 1 | 4
19 | CC(C)=CCc1c(OCCCCSc2cc[n+](CC(=O)N(C(C)C)C(C)C)cc2)ccc2ccc(=O)oc12.[Br-] | 2 | 2 | 2 | > 128 | 1 | > 160 | 2 | 4 | 4 | 1 | 2 | 2 | 2
20 | CCCCCCNC(=O)C[n+]1ccc(SCCCCCOc2ccc3ccc(=O)oc3c2CC=C(C)C)cc1.[Br-] | 2 | 2 | 2 | > 128 | 2 | > 160 | 2 | 2 | 2 | 4 | 2 | 64 | 2
21 | CC(C)=CCc1c(OCCCSc2cc[n+](CC(=O)N3CCOCC3)cc2)ccc2ccc(=O)oc12.[Br-] | 64 | 32 | 32 | > 128 | 32 | > 160 | 128 | 128 | 128 | 64 | 64 | 128 | 64
22 | CCCCNC(=O)C[n+]1ccc(SCCCCOc2ccc3ccc(=O)oc3c2CC=C(C)C)cc1.[Br-] | 2 | 4 | 4 | > 128 | 2 | > 160 | 4 | 4 | 4 | 2 | 2 | 8 | 4
23 | C[C@@H](O)[C@H]1C(=O)N2C(C(=O)O)=C(S[C@@H]3CN[C@H](C(=O)N(C)C)C3)[C@H](C)[C@H]12 [MEROPENEM] | – | – | – | 0.063 (≈ 0.164 µM) | – | – | – | – | – | – | – | – | –
